Measurements reported in PubChem BioAssay AID1322 (NMMLSC, 2008).
The source made the active and inactive calls. How the calls were made is not given here.

Target: Bcl-2-like protein 1 (Homo sapiens) (UniProt Q07817)
Test: Bcl-XL binding to Bim peptide disruption – biochemical, multiplexed, bead flow cytometry, human Bcl-XL, dose response (AID 1322); on inhibition: test concentration not given here
Conditions: Bead-based flow cytometry, MCF; for inhibition: stronger effect = higher value

Sequence of Bcl-2-like protein 1 (Homo sapiens) (Q07817 whole entry, looked up): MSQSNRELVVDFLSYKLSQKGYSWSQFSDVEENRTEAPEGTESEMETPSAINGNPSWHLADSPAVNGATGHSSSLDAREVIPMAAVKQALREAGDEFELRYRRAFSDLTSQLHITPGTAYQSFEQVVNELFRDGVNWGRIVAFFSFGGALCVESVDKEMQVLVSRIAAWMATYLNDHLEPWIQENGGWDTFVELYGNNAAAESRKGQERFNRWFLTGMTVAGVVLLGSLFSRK

| inhibition | SMILES | further results |
| --- | --- | --- |
| inactive | Cc1ccc(NS(=O)(=O)c2cc(NC(=O)c3ccc4c(c3)NC(=O)CS4)ccc2C)c(C)c1 |  |
| inactive | Cc1cc(-c2csc(N)n2)c(C)n1C |  |
| inactive | CCOc1ccccc1NC(=O)CSc1nnc2ccc(-c3cccnc3)nn12 |  |
| inactive | O=C(CCl)Nc1cccc2ncccc12 |  |
| inactive | O=C(Nc1cccc(-c2ccc3nncn3n2)c1)c1ccco1 |  |
| inactive | O=[N+]([O-])c1cccc(S(=O)(=O)NCC2CCCO2)c1 (stereo not given) |  |
| inactive | O=[N+]([O-])c1ccc(N2CCN(c3ccc(O)cc3)CC2)c(Cl)c1 |  |
| inactive | CCN1CCN(c2cc(C)c3cc(NC(=S)N4CCN(c5ccc(F)cc5)CC4)ccc3n2)CC1 |  |
| inactive | Cc1onc(-c2ccccc2Cl)c1C(=O)Nc1nn[nH]n1 |  |
| inactive | CCOC(=O)c1c(NC(C)=O)sc2c(O)c(Br)cc(Br)c12 |  |
| inactive | COc1cccc2c(SCC(=O)N/N=C/c3ccc(O)c(O)c3)cc(C)nc12 |  |
| inactive | COc1cc(C2Nc3cccc4cccc(c34)N2)cc(OC)c1O |  |
| inactive | CN(C(=O)NC1CCCCC1)c1ccccc1 |  |
| inactive | Cc1ccc(C)n1-c1ccc(N2CCOCC2)cc1 |  |
| inactive | CC[n+]1c(/C=C/C=C/N(C(C)=O)c2ccccc2)sc2ccccc21 |  |
| inactive | O=C(C1=C(Nc2ccccc2)c2ccccc2S(=O)(=O)N1)c1ccccc1 |  |
| inactive | CCCCN(C(=O)CCC(=O)Nc1cc(C)on1)C(C(=O)NC(C)(C)C)c1cccc(OC)c1OC (stereo not given) |  |
| inactive | CCN1/C(=C/c2ccc3cc(C)cc(C)c3[n+]2CC)Sc2cc(C)ccc21 |  |
| inactive | COc1ccccc1NC(=O)CSc1nnc(-c2ccco2)n1Cc1ccco1 |  |
| inactive | Cc1cc(C)cc(NS(=O)(=O)c2ccc3c(c2)c(=O)n(C)c(=O)n3C)c1 |  |
| inactive | CCC(=O)OCCNc1cc(Sc2nc3ccccc3s2)c2nonc2c1[N+](=O)[O-] |  |
| inactive | CN1/C(=C\C(=O)Nc2ccc(Cl)cc2)C(C)(C)c2ccccc21 |  |
| inactive | Cc1cc(-c2cc(-c3ccc(Cl)cc3)nc(N)c2C#N)co1 |  |
| inactive | COc1cc(/C=C2/NC(=O)N(Cc3ccccc3F)C2=O)cc(OC)c1O |  |
| inactive | COc1ccc(OCCNC(=O)c2ccccc2OCC(=O)N2CCCCC2)cc1 |  |
| inactive | CC1Nc2ccccc2C(=O)N1NS(C)(=O)=O (stereo not given) |  |

| inhibition | SMILES | further results |
| --- | --- | --- |
| inactive | CCCn1c(C)cc(-c2csc(N)n2)c1C |  |
| inactive | Cn1c(OCc2cccnc2)nc2c1c(=O)n(Cc1ccccc1)c(=O)n2C |  |
| inactive | Cc1cccn2c(=O)c3cc(C(N)=S)c(=N)n(CCCN4CCOCC4)c3nc12 |  |
| inactive | CCN(CC)c1ccc(-c2nn3c(-c4n[nH]c5c4CCC5)nnc3s2)cc1 |  |
| inactive | O=C(NCc1ccco1)C1CC2CCC1C2 (stereo not given) |  |
| inactive | Cc1ccc(S(=O)(=O)N2CCCCC2)cc1NC(=O)COC(=O)c1ccccc1F |  |
| inactive | CCCCOC(=O)c1nc(Cl)c(Cl)c(N)c1Cl |  |
| inactive | Cc1cc(Cl)c(S(=O)(=O)NCC2CCCO2)cc1OCC(N)=O (stereo not given) |  |
| inactive | N#Cc1cc(-c2ccccc2)nn1-c1ccccc1 |  |
| inactive | CCOC(=O)c1cccc(Nc2ncnc3ccccc23)c1 |  |
| inactive | CC1=NN(c2ccc(C)cc2)C(=O)/C1=C\c1ccc(Br)s1 |  |
| inactive | COc1ccc(CC(=O)Nc2ccc(C(=O)Nc3nccs3)cc2)cc1OC |  |
| inactive | CCOC(=O)c1sc(N)c(C(=O)Nc2ccccc2OC)c1C |  |
| inactive | O=C(Nc1ccc2nc(-c3ccco3)c(-c3ccco3)nc2c1)N1CCN(c2ccccn2)CC1 |  |
| inactive | Cc1ccccc1/C=N/Nc1ccnc2cc(Cl)ccc12 |  |
| inactive | COc1ccc(C2=Nc3cccc4cccc(c34)N2)cc1 |  |
| inactive | CC1N(C)c2cccc3cccc(c23)N1C |  |
| inactive | O=[N+]([O-])c1c(NCCO)cc(Sc2nc3ccccc3s2)c2nonc12 |  |
| inactive | COc1cccc(/C=C2/SC(=O)N(C)C2=O)c1OCc1ccc(C(=O)O)cc1 |  |
| inactive | CCOC(=O)C1(CC/C(C)=N\NC(N)=O)CC(C)(C)OC1=O (stereo not given) |  |
| inactive | Cc1ccc(-c2nc3c(c(=O)[nH]c(=O)n3Cc3ccccc3)n2C)o1 |  |
| inactive | Cc1sc(NC(=O)Cn2cnnn2)nc1-c1ccc(Cl)cc1 |  |
| inactive | CCN(CC)c1ccc(NC(=O)c2cccc(C)c2)cc1S(=O)(=O)Nc1ccccc1OC |  |
| inactive | CCOC(=O)c1snc(-c2ccc(F)cc2)c1N |  |
| inactive | Cc1cc(C)nc(SCc2cc(=O)c(OC(=O)c3cccc([N+](=O)[O-])c3)co2)n1 |  |
| inactive | CCN(CC)c1ccc(NC(=O)c2ccccc2)cc1S(=O)(=O)Nc1ccccc1OC |  |

More lines, now with the values behind:

| SMILES | inhibition | further results |
| --- | --- | --- |
| CNC(=O)c1c(N)sc2c1CCCCC2 | inactive |  |
| CC(C)(C)c1nc(NCCN2CCOCC2)c2nnn(Cc3ccccc3Cl)c2n1 | inactive |  |
| CCN(CC)S(=O)(=O)c1cccc(C(=O)N/N=C/c2ccc(O)c(O)c2O)c1 | inactive |  |
| O=C1NCCN1C(=O)N(c1ccccc1)c1ccccc1 | inactive |  |
| O=C(C1=NN(c2ccccc2)C2C(=O)N(c3ccccc3)C(=O)C12)c1ccccc1 (stereo not given) | inactive |  |
| O=C(O)CCN1C(=O)/C(=C\c2ccc(-c3nc4ccccc4s3)o2)SC1=S | inactive |  |
| COc1ccc(C(=O)NC(=S)N2CCNC(=O)C2)cc1Br |  | outcome: inactive |
| O=C(c1cnccn1)N(Cc1cccs1)C1(C(=O)NC2CCCCC2)CCCCC1 |  | outcome: inactive |
| Cc1ccc(Nc2nc(-c3ccccc3)c(CC(=O)O)s2)cc1 | inactive |  |
| CCOC(=O)N1CCC(c2cc(=O)n(-c3ccccc3)[nH]2)CC1 |  | outcome: inactive |
| O=C(COC(=O)CCCN=C1NS(=O)(=O)c2ccccc21)NC(=O)NC1CCCC1 | inactive |  |
| CCc1nnc(NS(=O)(=O)c2ccc(N=CC3=C(O)CC(C)(C)CC3=O)cc2)s1 | inactive |  |
| CNCc1ccccc1Sc1cc(O)ccc1O |  | outcome: inactive |
| Cn1c(=O)c(C(=O)COC(=O)c2cc(-c3ccco3)nc3ccccc23)c(N)n(CC2CC2)c1=O | inactive |  |
| CC1CC2=C(NC(=S)NC2c2ccccc2F)/C(=C/c2ccccc2F)C1 (stereo not given) |  | outcome: inactive |
| CCOC(=O)C1(Cc2cccc(OC)c2)CCN(Cc2cccc(OC)c2OC)CC1 |  | outcome: inactive |
| CCN1/C(=C\c2ccc3cc(C)ccc3[n+]2CC)Sc2cc(C)c(C)cc21 |  | outcome: inactive |
| CCNCc1cc(Br)c(OCC(=O)Nc2ccccc2)c(OC)c1 | inactive |  |
| COc1cccc(/C=N/Nc2nn3cnnc3c3ccccc23)c1 |  | EC50: inactive |
| CCN1CCN(c2cc(C)c3cc(NC(=S)N4CCCCC4)ccc3n2)CC1 | inactive |  |
| CCOc1cccc(CNc2ccc(O)cc2)c1OCc1ccccc1Cl | inactive |  |
| COc1ccc(OC)c(NC(=O)CCCN2C(=S)NC(C)(C)CC2C)c1 (stereo not given) |  | outcome: inactive |
| CC(=O)NC(=O)Nc1sc(=S)n(C)c1C | inactive |  |
| Cc1nn(-c2ccc(Cl)c(Cl)c2)c(C)c1C(=O)O |  | outcome: inactive |
| NNC(=O)COc1ccccc1F | inactive |  |
| COc1ccc(CN(CC(=O)NC2CCCC2)C(=O)CCC(=O)Nc2cc(C)on2)cc1 |  | outcome: inactive |
| CNc1ccc(Br)cc(C(=O)/C=C/c2cc(OC)ccc2OC)c1=O | inactive |  |

| SMILES | inhibition | further results |
| --- | --- | --- |
| COc1ccc(C(=O)/C=C/c2cc(OC)c(O)c(OC)c2)c(F)c1 | inactive |  |
| Fc1ccc(C2=Nc3cccc4cccc(c34)N2)cc1 |  | outcome: inactive |
| CN(CCc1ccccn1)C(=O)CCC1CCCN(C(=O)NC2CCCCC2)C1 (stereo not given) |  | outcome: inactive |
| CN(C)c1ccc(/C=C2/SC(=O)N(CCN=C3NS(=O)(=O)c4ccccc43)C2=O)cc1 | inactive |  |
| Cc1ccc(C)c(/C=C/C(=O)c2ccccc(=O)c2O)c1 | inactive |  |
| C=CCSc1nc(N)c2c(C)c(C)sc2n1 | inactive |  |
| Fc1ccc(/C=C2\CCCC3=C2NC(=S)NC3c2ccc(F)cc2)cc1 (stereo not given) | inactive |  |
| Cc1ccc(S(=O)(=O)NC(=O)COc2ccccc2C)cc1 | inactive |  |
| O=C(O)C1=C[C@H](C2CC2)C[C@H](OCCCCO)O1 | inactive |  |
| COc1cc(N=c2ssnc2Cl)cc(OC)c1 | inactive |  |
| Cc1ccc2cc(C)c(Sc3nnnn3-c3ccccc3)nc2c1 | inactive |  |
| Cc1ccc(C(=O)N(CCCN(C)C)c2nc3ccc(Cl)cc3s2)cc1C |  | outcome: inactive |
| Cc1ccc(-c2cc(C(=O)Nc3ccccn3)c3ccccc3n2)o1 | inactive |  |
| O=C(C[n+]1ccc(-c2nnc3n2CCC3)cc1)c1ccc(Cl)c(Cl)c1 | inactive |  |
| COc1ccccc1N(C)S(=O)(=O)c1ccc(C(=O)OCC(N)=O)cc1 |  | outcome: inactive |
| COc1ccccc1Oc1ccc2c(c1)C(=O)N(c1cccc3ncccc13)C2=O | inactive |  |
| CCOc1cc(/C=N/NC(=O)c2cccs2)cc([N+](=O)[O-])c1O | inactive |  |
| O=C(CSc1nnc(-c2ccccc2)c(-c2ccccc2)n1)N1CCc2ccccc21 | inactive |  |
| Fc1cccc(Nc2nc(-c3ccncc3)nc3ccccc23)c1 |  | outcome: inactive |
| CNc1ccc(Br)cc(C(=O)/C=C/c2cccc(OC)c2OC)c1=O | inactive |  |
| CCN(CC)c1ccc(Nc2nc(N3CCOCC3)c3ccccc3n2)cc1 | inactive |  |
| COc1ccc(CC(=O)Nc2ccc(-c3nc4cc(C)ccc4o3)c(O)c2)cc1OC | inactive |  |
| O=C(Cn1c2ccccc2c(=O)c2ccccc21)N/N=C/c1ccc(N2CCCC2)c([N+](=O)[O-])c1 | inactive |  |
| O=C(CSc1nnc(Cc2ccccc2)o1)NCc1ccco1 | inactive |  |
| CCOC(=O)c1ccc(N=c2ssnc2Cl)cc1 |  | outcome: inactive |
| COc1c(C)cc(Br)cc1C(=O)Nc1ccc(S(N)(=O)=O)cc1 |  | outcome: inactive |
